Data: patent US20250340848A1, “METHODS FOR CHEMICAL REPROGRAMMING AND PLURIPOTENT STEM CELLS” (Peking University, priority 2022, published 2025)

Assays:
hADSC = assay: Chemical reprogramming of hADSC per Example 6A, OCT4-positive hCiPSC clones; assay type: cell-based, human
Protocol: In short, hADSC or hASF are seeded at 1×10^4 cells/well in a 12-well plate, or at 0.5-0.6×10^4 cells/well in a 24-well plate, and cultured overnight. The next day, the medium is replaced with Stage I induction medium (Knockout DMEM supplemented with 2% B27 supplement, 1% KSR, 1% GlutaMAX, 1% NEAA, 1% penicillin-streptomycin, […] Vc2p, 5 mM LiCl, 1 mM NAM, 20 ng/mL BMP4, 5 μM CHIR999021, 10 μM 616452, 2 μM TTNPB, 0.5 μM SAG, 2 μM EPZ5676, 0.05 μM DZNep, 1 μM ruxolitinib, 0.5 μM VTP50469, 1 μM HY-10249A (CAS No. 842148-40-7), 0.2 μM JNKIN8, and 0.2 μM SETD2-IN-1), and cultured under hypoxic conditions (5% 02) until a monolayer of epithelial-like cells appears and reaches approximately 100% confluence. hADSC cells typically require 8-10 days, and hASFs typically require 9-16 days. […]
OCT4 immunofluorescent staining is performed on the obtained hCiPSC clones, with OCT4 positivity serving as an indicator of hCiPSC clones. The reprogramming efficiency of the method is calculated by dividing the number of OCT4-positive clones by the number of initial hADSC or hASFs plated. […]

[1] = system: cellular retinoic acid binding protein (CRABP); conditions: cited from earlier work

SMILES: CCc1c(C#N)c(SC(C(N)=O)c2ccccc2)nc(N2CCC(N)CC2)c1C#N (stereo not drawn) [GSK3685032]
- transformation into pluripotent stem cells vs control (hADSC; 6+4+8, added to Stage II induction medium (RA 5 μM, GSK3685032 0.02 μM), FIG. 29): significantly improve the transformation of LIN28A-positive monolayer epithelial-like cells into pluripotent stem cells

SMILES: O=C(NNS(=O)(=O)c1ccccc1F)c1cc(F)cc(-c2ccccn2)c1 [WM1119]
- transformation efficiency (hADSC; 8+4+8 culture method, HATi 0.5 μM in stage I induction medium, FIG. 27A): about 2.4%

SMILES: CC(C)(C)c1cc(C(=O)/C=C/c2ccc(C(=O)O)cc2)cc(C(C)(C)C)c1 [Ch 55, 4-[(1E)-3-[3,5-bis(1,1-Dimethylethyl)phenyl]-3-oxo-1-propenyl]benzoic acid]
- affinity for cellular retinoic acid binding protein (CRABP) [1]: low affinity
